Measurements as given in patent US20230167450A1, “BIFUNCTIONAL MOLECULES AND METHODS OF USING THEREOF” (Flagship Pioneering, Inc., priority 2020, published 2023).

B1: ASO1: Non-targeting (scramble) control ASO, …, 2′-MOE phosphorothioate; tested conjugated at 5′ end with Ibrutinib-MPEA (nucleic acid)
chain: CCUUGAAAUCCAUGACGCAGGGAGAAUUGCGUCAUUUAAAGCCUAGUUAACGCAUUUACUAAACGCAGACGAAAAUGGAAAGAUUAAUUGGGAGUGGUAGGAUGAAACAAUUUGGAGAAGAUAGAAGUUUGAAGUGGAAAACUGGAAGACAGAAGUACGGGAAGGCGAA
modifications: Cy5-labeled IVT RNA

System: mRNA encoding Renilla Luciferase protein
Experiment: Renilla luciferase activity (protein expression) in HEK293T cells co-transfected with pRL-TK target plasmid and BTK-fused effector plasmid
Type: cell-based, human
Settings: ASO conjugated at the 5′ end with Ibrutinib-MPEA; effector fused to BTK
Text: The Ibrutinib-conjugated ASOs described in Example 4a (shown in Table 5 below) were co-transfected into human cells along with the plasmid expressing the target Renilla luciferase described in example 4b, as well as the plasmid expressing BTK-YTHDF1 effector protein described example 4c.
A 96-well cell culture plate with 70% confluent HEK293T cells was transfected with the 50 nanograms of the target luciferase plasmid and 100 nanograms of the plasmid expressing the BTK-YTHDF1 effector, using Lipofectamine 2000 (Thermo Fisher Scientific) according to the manufacturer's instruction. After 24 hours, targeting (test) and non-targeting (control) ASOi were transfected separately into the cells at the final concentration of 100 nM using Lipofectamine RNaiMax (Thermo Fisher Scientific) according to the manufacturer's instruction. For each condition, cells were allowed to recover and are subsequently analyzed 48 hours after the transfection of ASOis.
Pierce Renilla Luciferase Glow Assay Kit (Thermo Fisher Scientific) was used for measuring the luciferase activity corresponding to protein expression in each condition, according to manufacturer's instruction. The luminescence was measured and quantified by a GloMax plate reader and its integrated software (Promega Corp.), according to manufacturer's instruction (FIG. 4). […]

Molecule | Effector(s) increasing translation
ASO3: Rluc RNA-targeting ASO, TTCTGCAGCTTAAGTTCGA, 2′-MOE phosphorothioate; tested conjugated at 5′ end with Ibrutinib-MPEA (*/i2MOErT/*/i2MOErT/*/i2MOErC/*/i2MOErT/*/i2MOErG/*/i2MOErC/*/i2MOErA/*/i2MOErG/*/i2MOErC/*/i2MOErT/*/i2MOErT/*/i2MOErA/*/i2MOErA/*/i2MOErG/*/i2MOErT/*/i2MOErT/*/i2MOErC/*/i2MOErG/*/32MOErA/; as printed in the source, key not given here) | YTHDF1, EIF4E
B1 | YTHDF1, EIF4E
